{"source": "paper PMC3362645", "about": "“The Sigma Class Glutathione Transferase from the Liver Fluke Fasciola hepatica” (PLoS Neglected Tropical Diseases, 2012)"}
{"target": "T1, rFhGST-S1 (recombinant Fasciola hepatica Sigma class glutathione transferase) (Fasciola hepatica, UniProt Q06A71)", "T1 sequence (Q06A71 1-211)": "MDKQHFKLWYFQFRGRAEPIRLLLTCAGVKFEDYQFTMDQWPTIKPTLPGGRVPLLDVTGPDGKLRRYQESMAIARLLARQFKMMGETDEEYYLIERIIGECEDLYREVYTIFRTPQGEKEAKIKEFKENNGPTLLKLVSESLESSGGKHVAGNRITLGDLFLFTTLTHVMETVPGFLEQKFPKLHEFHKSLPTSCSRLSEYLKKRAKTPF", "assay": "inhibition of GSH-CDNB conjugation, spectrophotometric, graphical IC50", "assay_type": "biochemical", "units": {"IC50": "µM"}}
{"smiles": "C[C@H](CCC(=O)O)[C@H]1CC[C@H]2[C@@H]3CC[C@@H]4C[C@H](O)CC[C@]4(C)[C@H]3C[C@H](O)[C@]12C", "note": "[Deoxycholic acid]", "IC50": "223 ± 21"}
{"smiles": "C[C@H](CCC(=O)O)[C@H]1CC[C@H]2[C@@H]3[C@H](O)C[C@@H]4C[C@H](O)CC[C@]4(C)[C@H]3CC[C@]12C", "note": "[Chenodeoxycholic acid]", "IC50": "64 ± 9"}
{"smiles": "C[C@H](CCC(=O)O)[C@H]1CC[C@H]2[C@@H]3[C@H](O)C[C@@H]4C[C@H](O)CC[C@]4(C)[C@H]3C[C@H](O)[C@]12C", "note": "[Cholic acid]", "IC50": "302 ± 73"}
{"smiles": "C[S+]([O-])c1nc2cc(Cl)c(Oc3cccc(Cl)c3Cl)cc2[nH]1", "note": "(stereo not shown) [TCBZ SO, sulphoxide derivative of Triclabendazole]", "IC50": "57 ± 5"}
